Results on 1 compound are retold here after PMC12817916, “A small-molecule HSP90 inhibitor, NVP-HSP990, alleviates rotavirus infection” (Journal of Virology, 2025).

The subject of one data set is HT-29 cells. Put plainly: Cytotoxicity assay (CCK-8). The data set is classed as cell-based, Human. To be noted: HT-29 cells, 24 h, CCK-8; read-out: CC50. As for the experimental part: (§1) To evaluate the cytotoxicity of different HSP90 inhibitors in vitro, 10,000 MA104 cells, 30,000 Caco-2 cells, and 80,000 HT-29 cells in 100 µL complete DMEM medium were seeded in 96-well plates and cultured at 37°C and 5% CO2 for 24 h to reach about 100% confluence, and a cell-free control was also set. After removing the initial medium, 100 µL of complete DMEM medium containing the indicated concentrations of drugs was added to each well, and the plates were incubated at 37°C and 5% CO2. Twenty-four hours later, the drug-containing medium was replaced with 100 µL fresh complete DMEM medium plus 10 µL 5 mM CCK-8 reagent (Beyotime, China), and OD450 absorbance of each well was detected 3 h later using a microplate reader (Gene Company Limited, China). Relative cell viability rate = OD450 (drug-treated cells − cell-free control) / OD450 (0 µM drug-treated cells − cell-free control).
(§2) The 50% cytotoxic concentration (CC50) values were determined by nonlinear regression (curve fit) analysis in GraphPad Prism 9.0 (GraphPad Software). Dose-response data (drug concentrations as X-axis and normalized cell viability percentages as Y-axis) were fitted to a Dose-response Inhibition model ("[Inhibitor] vs. normalized response-Variable slope"). The curve was constrained to a bottom limit of 0% viability. The CC50 value was automatically calculated as the X-intercept at Y=50%. Model adequacy was validated using goodness-of-fit metrics (R²≥0.95), 95% confidence intervals, and residual distribution analysis. Final CC50 values were derived from three independent biological replicates and reported as mean ± SEM.

In another data set the test system is Caco-2 cells. Put plainly: Cytotoxicity assay (CCK-8). The data set is classed as cell-based, Human. To be noted: Caco-2 cells, 24 h, CCK-8; read-out: CC50. As for the experimental part: as §1, §2
The conditions of data set [1]: cited from earlier work.
Data set [2] deals with MAPK signaling pathway (ERK1/2, p38 MAPK, SAPK/JNK). Put plainly: Western blot of MAPK components. The data set is classed as cell-based. The note with it: WB; for MAPK activation (especially ERK1/2 and p38 MAPK): 100 nM, 20 h. How it is done: MA104, Caco-2, and HT-29 cells were mock-infected with PBS, infected with RV Wa or SA11 strains (MOI = 3), or treated with 1 µM C16-PAF (C16) for 1 h. After removing the viruses or C16-PAF and washing cells two times with DMEM, the cells were cultivated with 2 mL DMEM containing 100 nM NVP-HSP990 (+), an equal volume of DMSO (−), or 1 µM C16-PAF at 37°C and 5% CO2 for 20 h. Then, the cells in each well (~5 × 10^5 cells) were lysed with 100 µL RIPA lysis buffer (Beyotime, China) plus protease inhibitor cocktail (Thermo Fisher Scientific, USA). The cell lysates were collected in 1.5 mL EP tubes, sonicated five times for 15 s at 80 watts on ice, and clarified by centrifugation at 12,000 × g for 10 min at 4°C. After protein quantification with a BCA kit (Beyotime, China), the protein samples were mixed with 25 µL 5× SDS loading buffer (Beyotime, China), boiled at 100°C for 5 min, chilled on ice, vortexed for seconds, and centrifuged at 12,000 × g for 3 min at room temperature. Twenty micrograms of protein was subjected to protein electrophoresis in precast 4–20% SDS-PAGE gels (Beyotime, China), and then transferred to 0.22 µm PVDF membranes (Millipore, USA). After blocking with 5% BSA, the membranes were incubated with rabbit antibodies to MAPK components (SAPK/JNK, phospho-SAPK/JNK, p38 MAPK, phospho-p38 MAPK, ERK1/2, phospho-ERK1/2) (CST, USA), rabbit anti-RV VP6/VP7 polyclonal antibodies (CUSABIO, China), or mouse mAb to β-actin (Servicebio, China) as an internal reference. Afterward, the membranes were incubated with horseradish peroxidase-conjugated rat anti-rabbit IgG (CST, USA) or rat anti-mouse IgG (CST, USA). Immunoreactive bands were visualized using enhanced chemiluminescence substrate BeyoECL Plus (Beyotime, China).
Fig 4 NVP-HSP990 inhibited MAPK activation and facilitated expression of tight junction-associated proteins in intestinal cells. […]
Supplementary Fig. 7. […] The grayscale values of WB bands were quantified, and the relative protein levels of MAPK components were normalized to β-actin. […]

Some results are limits rather than exact numbers.

As to `COc1cccc(-c2cc(F)ccc2[C@H]2Cc3nc(N)nc(C)c3C(=O)N2)n1` [NVP-HSP990], the CC50 in the data set with HT-29 cells and with Caco-2 cells was more than 100 µM each time. Besides, the brain penetration entry in data set [1] is given as “brain-penetrating”. The oral bioavailability result in data set [1] is listed as “orally bioavailable”. Moreover, the “MAPK activation caused by non-infectious factors (drug stimulation)” value in data set [2] (Caco-2 cells, 1 µM C16-PAF, 100 nM NVP-HSP990, 20 h) is reported as “potently inhibited”. For the same compound, the “MAPK activation (especially ERK1/2 and p38 MAPK)” value in data set [2] (RV-infected Caco-2 and HT-29 cells) is “significantly inhibited”; in data set [2] (RV-infected MA104 cells), “not”.
